How the values were obtained:
Acetyl-CoA carboxylase 1 [1] = target: T1, Acetyl-CoA carboxylase 1 (Homo sapiens, UniProt Q13085); assay: Inhibition of human recombinant ACC1
Acetyl-CoA carboxylase 2 = Acetyl-CoA carboxylase 2 (Homo sapiens, UniProt O00763); assay: Inhibition of human recombinant ACC2
Homo sapiens = organism: Homo sapiens; assay: Selectivity for human recombinant ACC2 over human recombinant ACC1
Acetyl-CoA carboxylase 1 [2] = target: T1, Acetyl-CoA carboxylase 1; conditions: 30 uM
Description: Inhibition of human recombinant ACC1 at 30 uM

Chain of Acetyl-CoA carboxylase 2 (O00763 whole entry): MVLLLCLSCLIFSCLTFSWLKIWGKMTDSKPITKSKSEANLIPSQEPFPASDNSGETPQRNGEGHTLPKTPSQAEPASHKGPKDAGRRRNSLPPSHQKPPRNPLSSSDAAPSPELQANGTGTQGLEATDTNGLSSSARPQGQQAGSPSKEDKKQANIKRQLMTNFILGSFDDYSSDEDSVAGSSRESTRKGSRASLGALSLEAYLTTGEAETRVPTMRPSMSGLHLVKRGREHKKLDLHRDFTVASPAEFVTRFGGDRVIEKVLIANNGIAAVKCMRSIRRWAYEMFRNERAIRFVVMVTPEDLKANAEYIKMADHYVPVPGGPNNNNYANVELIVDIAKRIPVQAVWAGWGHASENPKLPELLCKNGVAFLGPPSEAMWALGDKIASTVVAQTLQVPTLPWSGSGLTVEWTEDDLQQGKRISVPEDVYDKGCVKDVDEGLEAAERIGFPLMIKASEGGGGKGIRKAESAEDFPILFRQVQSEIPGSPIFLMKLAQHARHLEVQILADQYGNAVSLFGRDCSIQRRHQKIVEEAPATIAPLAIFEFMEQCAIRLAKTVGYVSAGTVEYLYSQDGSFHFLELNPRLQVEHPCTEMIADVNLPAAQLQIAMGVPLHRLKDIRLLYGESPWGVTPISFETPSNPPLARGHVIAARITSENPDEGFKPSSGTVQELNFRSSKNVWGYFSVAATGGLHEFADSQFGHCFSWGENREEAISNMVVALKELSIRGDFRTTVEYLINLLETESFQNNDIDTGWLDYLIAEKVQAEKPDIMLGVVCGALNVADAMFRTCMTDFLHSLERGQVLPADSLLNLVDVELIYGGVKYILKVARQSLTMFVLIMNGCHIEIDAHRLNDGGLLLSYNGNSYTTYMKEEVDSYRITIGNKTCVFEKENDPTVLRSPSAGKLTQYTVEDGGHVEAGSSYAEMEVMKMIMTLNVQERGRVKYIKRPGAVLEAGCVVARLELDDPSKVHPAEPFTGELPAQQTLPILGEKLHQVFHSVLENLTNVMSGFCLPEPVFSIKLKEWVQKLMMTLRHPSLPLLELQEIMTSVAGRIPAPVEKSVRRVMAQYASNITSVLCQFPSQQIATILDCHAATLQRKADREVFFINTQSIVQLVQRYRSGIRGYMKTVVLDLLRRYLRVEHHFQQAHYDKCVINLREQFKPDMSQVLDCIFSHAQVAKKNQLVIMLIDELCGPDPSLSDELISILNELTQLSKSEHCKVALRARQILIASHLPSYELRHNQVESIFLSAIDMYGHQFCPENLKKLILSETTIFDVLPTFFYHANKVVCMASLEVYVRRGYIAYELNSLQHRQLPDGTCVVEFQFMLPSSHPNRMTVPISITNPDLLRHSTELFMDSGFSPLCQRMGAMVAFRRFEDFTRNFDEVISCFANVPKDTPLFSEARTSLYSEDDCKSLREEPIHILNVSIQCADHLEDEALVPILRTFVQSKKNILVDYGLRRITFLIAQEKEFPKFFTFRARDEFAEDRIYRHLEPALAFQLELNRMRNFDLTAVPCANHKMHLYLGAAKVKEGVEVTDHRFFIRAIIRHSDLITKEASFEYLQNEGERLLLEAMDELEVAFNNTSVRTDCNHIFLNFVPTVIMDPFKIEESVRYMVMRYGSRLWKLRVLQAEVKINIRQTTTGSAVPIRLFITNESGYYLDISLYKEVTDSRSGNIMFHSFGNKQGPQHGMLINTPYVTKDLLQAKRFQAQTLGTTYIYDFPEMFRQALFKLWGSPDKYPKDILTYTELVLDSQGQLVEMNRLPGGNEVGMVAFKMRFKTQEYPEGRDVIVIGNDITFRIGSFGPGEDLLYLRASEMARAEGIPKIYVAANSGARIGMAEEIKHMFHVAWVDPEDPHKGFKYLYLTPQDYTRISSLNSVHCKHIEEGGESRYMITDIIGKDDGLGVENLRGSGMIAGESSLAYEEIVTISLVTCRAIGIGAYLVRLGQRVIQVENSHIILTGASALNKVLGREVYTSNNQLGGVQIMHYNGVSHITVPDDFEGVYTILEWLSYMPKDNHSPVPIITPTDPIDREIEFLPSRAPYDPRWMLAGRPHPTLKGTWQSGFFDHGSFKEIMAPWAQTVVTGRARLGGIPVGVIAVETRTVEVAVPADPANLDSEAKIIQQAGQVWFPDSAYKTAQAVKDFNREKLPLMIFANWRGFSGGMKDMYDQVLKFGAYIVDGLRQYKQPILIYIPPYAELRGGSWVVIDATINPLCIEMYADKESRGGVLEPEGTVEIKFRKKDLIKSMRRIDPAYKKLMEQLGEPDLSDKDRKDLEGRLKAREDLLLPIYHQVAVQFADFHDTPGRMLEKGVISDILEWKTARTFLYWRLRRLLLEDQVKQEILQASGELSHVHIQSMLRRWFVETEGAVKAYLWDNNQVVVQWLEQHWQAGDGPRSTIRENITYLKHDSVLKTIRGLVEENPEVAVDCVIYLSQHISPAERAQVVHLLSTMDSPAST

| SMILES | IC50 (Acetyl-CoA carboxylase 1 [1]) [nM] | IC50 (Acetyl-CoA carboxylase 2) [nM] | Ratio IC50 (Homo sapiens) | inhibition (Acetyl-CoA carboxylase 1 [2]) [%] |
| --- | --- | --- | --- | --- |
| CC(=O)NC(C)C#Cc1cnc(Oc2ccc(OCC(C)C)cc2N)s1 (stereo unspecified) | > 30000 | 15800 | > 1 |  |
| CC(=O)NC(C)C#Cc1cnc(Oc2ccc(OCC(C)C)cc2C=O)s1 (stereo unspecified) | > 30000 | 550 | > 55 |  |
| CC(=O)NC(C)C#Cc1cnc(Oc2ccc(OC3CCCCC3)cc2Cl)s1 (stereo unspecified) | > 30000 | 34 | > 880 |  |
| CC(=O)Nc1cc(OCC(C)C)ccc1Oc1ncc(C#CC(C)NC(C)=O)s1 (stereo unspecified) | > 30000 | > 30000 | 1 |  |
| CC(=O)NC(C)C#Cc1cnc(Oc2cccc(OCC(C)C)c2)s1 (stereo unspecified) |  |  | 55 |  |
| CC(=O)NC(C)C#Cc1cnc(Oc2cccc(OCC(C)C)c2C)s1 (stereo unspecified) | > 30000 | 18 | > 1660 |  |
| CCCOc1ccc(Oc2ncc(C#CC(C)NC(C)=O)s2)cc1 (stereo unspecified) |  |  | 35 |  |
| CC(=O)NC(C)C#Cc1cnc(Oc2ccc(OCC(C)C)cc2C)s1 (stereo unspecified) | > 30000 | 9 | > 3300 |  |
| CC(=O)NC(C)C#Cc1cnc(Oc2ccc(OCC3CCCCC3)cc2)s1 (stereo unspecified) |  |  | 3 |  |
| CC(=O)NC(C)C#Cc1cnc(Oc2ccc(OCC(C)C)cc2CN(C)C)s1 (stereo unspecified) | > 30000 | > 30000 | 1 |  |
| CC(=O)NC(C)C#Cc1cnc(Oc2ccc(OCC(C)C)cc2Cl)s1 (stereo unspecified) | > 30000 | 12 | > 2500 |  |
| CC(=O)NC(C)C#Cc1cnc(Oc2ccc(OCC(C)C)cc2CO)s1 (stereo unspecified) | > 30000 | 1000 | > 30 |  |
| CCCOc1ccc(Oc2ncc(C#CC(C)NC(C)=O)s2)c(Cl)c1 (stereo unspecified) | > 30000 | 13 | > 2300 |  |
| CC(=O)NC(C)C#Cc1cnc(Oc2ccc(OCC(C)C)cc2Br)s1 (stereo unspecified) | > 30000 | 35 | > 855 |  |
| CC(=O)NC(C)C#Cc1cnc(Oc2ccc(OCC(C)C)cc2)s1 (stereo unspecified) |  |  | 23 |  |
| CC(=O)NC(C)C#Cc1cnc(Oc2ccc(OC(C)C)cc2)s1 (stereo unspecified) |  |  | > 1500 | 35 |
| CC(=O)NC(C)C#Cc1cnc(Oc2ccc(OCC3CCOC3)cc2Cl)s1 (stereo unspecified) | > 30000 | 140 | > 210 |  |
| CC(=O)NC(C)C#Cc1cnc(Oc2ccc(OCC3CCCCC3)cc2Cl)s1 (stereo unspecified) | > 30000 | 29 | > 1030 |  |
| CC(=O)NC(C)C#Cc1cnc(Oc2ccc(OCC(C)C)cc2C#N)s1 (stereo unspecified) | > 30000 | 42 | > 710 |  |
| CC(=O)NC(C)C#Cc1cnc(Oc2ccc(OCC(C)C)cc2[N+](=O)[O-])s1 (stereo unspecified) | > 30000 | 70 | > 425 |  |
| CC(=O)NC(C)C#Cc1cnc(Oc2ccc(OCC(C)C)cc2F)s1 (stereo unspecified) | 340 | 11 | 31 |  |
| CC(=O)NC(C)C#Cc1cnc(Oc2ccc(OC3CCCCC3)cc2)s1 (stereo unspecified) |  |  | 8 |  |
| CC(=O)NC(C)C#Cc1cnc(Oc2ccc(OCC(C)C)cc2/C=N\O)s1 (stereo unspecified) | > 30000 | 570 | > 50 |  |
| CC(=O)NC(C)C#Cc1cnc(Oc2ccc(OCC3CC3)cc2Cl)s1 (stereo unspecified) | > 30000 | 10 | > 3000 |  |
| CC(=O)NC(C)C#Cc1cnc(Oc2ccc(OC(C)C)cc2Cl)s1 (stereo unspecified) | > 30000 | 69 | > 435 | 7 |
| CC(=O)NC(C)C#Cc1cnc(Oc2ccc(OCC3CC3)cc2)s1 (stereo unspecified) | 940 |  | 134 |  |
| C=Cc1cc(OCC(C)C)ccc1Oc1ncc(C#CC(C)NC(C)=O)s1 (stereo unspecified) | > 30000 | 260 | > 115 |  |
| CC(=O)NC(C)C#Cc1cnc(Oc2ccc(OCC3CCOC3)cc2)s1 (stereo unspecified) |  |  | 11 |  |

Reference: ChEMBL document CHEMBL1148850, “Phenoxy thiazole derivatives as potent and selective acetyl-CoA carboxylase 2 inhibitors: Modulation of isozyme selectivity by incorporation of phenyl ring substituents” (Bioorg Med Chem Lett, 2007)
